Experimental data from patent EP4725941A1, “ARYLAMIDE DERIVATIVE HAVING ANTITUMOR ACTIVITY” (priority 2020, dated 2021).
pIC50: −log10 of the molar value. Like-named read-outs stand apart in the source and are kept apart here.

How the values were obtained:
[1] = Human liver microsome stability; type: in vitro ADME; details: human liver microsomes, pH 7.4
[2] = molecular target: T1, MEK1 (Homo sapiens, UniProt Q02750); assay: MEK1-inhibiting activity, fluorescent polarization method (CRAF/MEK1/ERK2 cascade, IMAP); type: biochemical; details: Table 3; read-out: MEK1 IC50
T1 construct: purchased Thermo Fisher Scientific Inc. (MEK1, CRAF); Carna Biosciences, Inc. (ERK2)
T1 sequence (Q02750 whole entry): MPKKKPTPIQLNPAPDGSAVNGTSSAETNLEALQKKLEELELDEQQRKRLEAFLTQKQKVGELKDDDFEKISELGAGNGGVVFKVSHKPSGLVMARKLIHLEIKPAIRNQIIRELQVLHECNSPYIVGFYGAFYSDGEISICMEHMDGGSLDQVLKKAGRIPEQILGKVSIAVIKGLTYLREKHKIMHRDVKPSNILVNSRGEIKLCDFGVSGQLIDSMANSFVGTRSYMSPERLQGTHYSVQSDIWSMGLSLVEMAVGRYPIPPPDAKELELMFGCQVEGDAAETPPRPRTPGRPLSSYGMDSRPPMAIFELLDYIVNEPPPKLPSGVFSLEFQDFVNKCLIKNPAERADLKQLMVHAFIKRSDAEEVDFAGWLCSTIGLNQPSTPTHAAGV
Description: The MEK1-inhibiting activity of the compounds listed in Table 3 below were evaluated by the fluorescent polarization method as described below.

[3] = molecular target: T2, BRAF (Homo sapiens, UniProt P15056); assay: BRAF-inhibiting activity, time-resolved fluorescence-fluorescence resonance energy transfer assay; type: biochemical
T2 construct: purchased Eurofins Genomics KK; (BRAF); Thermo Fisher Scientific Inc. (MEK1)
T2 sequence (P15056 417-766 limits assumed): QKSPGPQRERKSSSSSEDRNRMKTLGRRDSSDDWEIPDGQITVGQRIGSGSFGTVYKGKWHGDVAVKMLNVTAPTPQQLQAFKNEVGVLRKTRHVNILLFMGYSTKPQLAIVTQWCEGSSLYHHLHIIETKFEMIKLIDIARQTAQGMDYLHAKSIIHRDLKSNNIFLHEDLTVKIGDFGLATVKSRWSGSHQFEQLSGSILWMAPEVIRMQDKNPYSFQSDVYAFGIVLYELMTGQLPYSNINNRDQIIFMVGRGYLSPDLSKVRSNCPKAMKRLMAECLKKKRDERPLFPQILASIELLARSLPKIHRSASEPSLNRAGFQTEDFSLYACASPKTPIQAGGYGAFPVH
Description: The BRAF-inhibiting activity of the compounds listed in Table 3 below was evaluated by the time-resolved fluorescence-fluorescence resonance energy transfer assay as described below.

[4] = test system: A549; assay: Cell proliferation-inhibiting activity (ATP in viable cells, CellTiter-Glo), A549; type: cell-based, human; details: human lung cancer cells, 4 days, read-out: A549 IC50
[5] = test system: NCI-H2122; assay: Cell proliferation-inhibiting activity (ATP in viable cells, CellTiter-Glo), NCI-H2122; type: cell-based, human; details: human lung cancer cells, 4 days, read-out: NCI-H2122 IC50

CNS(=O)(=O)Nc1nccc(Cc2cc(C(=O)NC3CC3)c(Nc3ccc(I)cc3F)c(F)c2F)c1F [Compound A-2, N-cyclopropyl-3,4-difluoro-2-(2-fluoro-4-iodoanilino)-5-[[3-fluoro-2-(methylsulfamoylamino)pyridin-4-yl]methyl]benzamide]
microsomal CLint at 0.99 µM [1]: 25 µL/min/mg | pIC50 [2]: 8.30 | pIC50 ([3]; read-out: BRAF IC50; Table 3): 8.52

COCC1(NS(=O)(=O)Nc2nccc(Cc3cc(C(N)=O)c(Nc4ccc(I)cc4F)c(F)c3F)c2F)CC1 [Compound A-16]
pIC50 [4]: 7.85 | pIC50 [5]: 8.52 | pIC50 [2]: 8.10 | pIC50 ([3]; Table 3; read-out: BRAF IC50): 8.52

NC(=O)c1cc(Cc2ccnc(NS(=O)(=O)NC3C4COCC43)c2F)c(F)c(F)c1Nc1ccc(I)cc1F (stereo not drawn) [Compound A-22, 3,4-Difluoro-2-(2-fluoro-4-iodoanilino)-5-[[3-fluoro-2-(3-oxabicyclo[3. 1.0]hexan-6-ylsulfamoylamino)pyridin-4-yl]methyl]benzamide]
pIC50 [4]: 7.51 | pIC50 [5]: 8.00 | pIC50 [2]: 8.22 | pIC50 ([3]; Table 3; read-out: BRAF IC50): 8.70

CCNS(=O)(=O)Nc1nccc(Cc2cc(C(=O)NOCCO)c(Nc3ccc(I)cc3F)c(F)c2F)c1F [Compound A-44, 5-[[2-(Ethylsulfamoylamino)-3-fluoropyridin-4-yl]methyl]-3,4-difluoro-2-(2-fluoro-4-iodoanilino)-N-(2-hydroxyethoxy)benzamide]
pIC50 ([5]; NCI-H2122, 96 h): 9.00 | pIC50 [2]: 8.70 | pIC50 ([3]; Table 3; read-out: BRAF IC50): 7.72

CCCNS(=O)(=O)Nc1nccc(Cc2cc(C(=O)NOCCO)c(Nc3ccc(I)cc3F)c(F)c2F)c1F [Compound A-45, 3,4-Difluoro-2-(2-fluoro-4-iodoanilino)-5-[[3-fluoro-2-(propylsulfamoylamino)pyridin-4-yl]methyl]-N-(2-hydroxyethoxy)benzamide]
pIC50 ([4]; A549, 96 h): 8.30 | pIC50 ([5]; NCI-H2122, 96 h): 9.00 | pIC50 [2]: 8.70 | pIC50 ([3]; read-out: BRAF IC50; Table 3): 8.22

CC1(NS(=O)(=O)Nc2nccc(Cc3cc(C(=O)NC4CC4)c(Nc4ccc(I)cc4F)c(F)c3F)c2F)CCC1 [Compound A-47, N-Cyclopropyl-3,4-difluoro-2-(2-fluoro-4-iodoanilino)-5-[[3-fluoro-2-[(1-methylcyclobutyl)sulfamoylamino]pyridin-4-yl]methyl]benzamide]
microsomal CLint at 0.99 µM [1]: 38 µL/min/mg | pIC50 ([5]; NCI-H2122, 96 h): 7.77 | pIC50 [2]: 7.41 | pIC50 ([3]; read-out: BRAF IC50; Table 3): 7.68

CC1(NS(=O)(=O)Nc2cccc(Cc3cc(C(=O)NC4CC4)c(Nc4ccc(I)cc4F)c(F)c3F)c2F)CCC1 [Compound D-10, N-Cyclopropyl-3,4-difluoro-2-(2-fluoro-4-iodoanilino)-5-[[2-fluoro-3-[(1-methylcyclobutyl)sulfamoylamino]phenyl]methyl]benzamide]
microsomal CLint at 0.99 µM [1]: 107 µL/min/mg | pIC50 ([5]; NCI-H2122, 96 h): 7.55 | pIC50 [2]: 6.58 | pIC50 ([3]; read-out: BRAF IC50; Table 3): 7.47

CNS(=O)(=O)Nc1cccc(Cc2cc(C(=O)NC3CC3)c(Nc3ccc(C4CC4)cc3F)c(F)c2F)c1F [Compound D-15, N-Cyclopropyl-2-(4-cyclopropyl-2-fluoroanilino)-3,4-difluoro-5-[[2-fluoro-3-(methylsulfamoylamino)phenyl]methyl]benzamide]
microsomal CLint at 0.99 µM [1]: 91 µL/min/mg | pIC50 [2]: 5.91 | pIC50 ([3]; read-out: BRAF IC50; Table 3): 7.77

CNS(=O)(=O)Nc1nccc(Cc2cc(C(=O)NC3CC3)c(Nc3ccc(C4CC4)cc3F)c(F)c2F)c1F [Compound G-1, N-Cyclopropyl-2-(4-cyclopropyl-2-fluoroanilino)-3,4-difluoro-5-[[3-fluoro-2-(methylsulfamoylamino)pyridin-4-yl]methyl]benzamide]
microsomal CLint at 0.99 µM [1]: 32 µL/min/mg | pIC50 [2]: 6.65 | pIC50 ([3]; read-out: BRAF IC50; Table 3): 7.92

CCS(=O)(=O)Nc1nccc(Cc2cc(C(=O)NC3CC3)c(Nc3ccc(C4CC4)cc3F)c(F)c2F)c1F [Compound G-7, N-Cyclopropyl-2-(4-cyclopropyl-2-fluoroanilino)-5-[[2-(ethylsulfonylamino)-3-fluoropyridin-4-yl]methyl]-3,4-difluorobenzamide]
microsomal CLint at 0.99 µM [1]: 21 µL/min/mg | pIC50 ([5]; NCI-H2122, 96 h): 7.12 | pIC50 [2]: 5.61 | pIC50 ([3]; read-out: BRAF IC50; Table 3): 7.34

NC(=O)c1cc(Cc2ccnc(NS(=O)(=O)NC3CC3)c2F)c(F)cc1Nc1ccc(I)cc1F [Compound I-3, 5-[[2-(Cyclopropylsulfamoylamino)-3-fluoropyridin-4-yl]methyl]-4-flu oro-2-(2-fluoro-4-iodoanilino)benzamide]
microsomal CLint at 0.99 µM [1]: 16 µL/min/mg | pIC50 [2]: 7.26 | pIC50 ([3]; read-out: BRAF IC50; Table 3): 8.70

COCCNS(=O)(=O)Nc1nccc(Cc2cc(C(N)=O)c(Nc3ccc(I)cc3F)cc2F)c1F [Compound I-4, 4-Fluoro-2-(2-fluoro-4-iodoanilino)-5-[[3-fluoro-2-(2-methoxyethylsulfamoylamino)pyridin-4-yl]methyl]benzamide]
microsomal CLint at 0.99 µM [1]: 25 µL/min/mg | pIC50 ([5]; NCI-H2122, 96 h): 7.08 | pIC50 [2]: 6.56 | pIC50 ([3]; read-out: BRAF IC50; Table 3): 8.40

COCCNS(=O)(=O)Nc1nccc(Cc2cc(C(N)=O)c(Nc3ccc(I)cc3F)n(C)c2=O)c1F [Compound J-2, 2-(2-Fluoro-4-iodoanilino)-5-[[3-fluoro-2-(2-methoxyethylsulfamoylamino)pyridin-4-yl]methyl]-1-methyl-6-oxopyridine-3-carboxamide]
microsomal CLint at 0.99 µM [1]: 16 µL/min/mg | pIC50 ([5]; NCI-H2122, 96 h): 6.89 | pIC50 [2]: 6.31 | pIC50 ([3]; read-out: BRAF IC50; Table 3): 7.96

CNS(=O)(=O)Nc1nccc(Cc2cc(C(N)=O)c(Nc3ccc(C4CC4)cc3F)n(C)c2=O)c1F [Compound J-3, 2-(4-Cyclopropyl-2-fluoroanilino)-5-[[3-fluoro-2-(methylsulfamoylamino)pyridin-4-yl]methyl]-1-methyl-6-oxopyridine-3-carboxamide]
microsomal CLint at 0.99 µM [1]: 23 µL/min/mg | pIC50 [2]: 6.51 | pIC50 ([3]; read-out: BRAF IC50; Table 3): 7.96

COCCNS(=O)(=O)Nc1nccc(Cc2cc(C(=O)NOC)c(Nc3ccc(I)cc3F)n(C)c2=O)c1F [Compound J-9, 2-(2-Fluoro-4-iodoanilino)-5-[[3-fluoro-2-(2-methoxyethylsulfamoylamino)pyridin-4-yl]methyl]-N-methoxy-1-methyl-6-oxopyridine-3-carbox amide]
microsomal CLint at 0.99 µM [1]: 23 µL/min/mg | pIC50 ([5]; NCI-H2122, 96 h): 7.77 | pIC50 [2]: 7.19 | pIC50 ([3]; read-out: BRAF IC50; Table 3): 8.52

CCS(=O)(=O)Nc1cc(Cc2cc(C(N)=O)c(Nc3ccc(I)cc3F)n(C)c2=O)ccn1 [Compound J-12, 5-[[2-(Ethylsulfonylamino)pyridin-4-yl]methyl]-2-(2-fluoro-4-iodoanilino)-1-methyl-6-oxopyridine-3-carboxamide]
microsomal CLint at 0.99 µM [1]: 19 µL/min/mg | pIC50 ([5]; NCI-H2122, 96 h): 6.74 | pIC50 [2]: 5.64

Cn1c(Nc2ccc(I)cc2F)c(C(N)=O)cc(Cc2ccnc(NS(=O)(=O)NC3CC3)c2F)c1=O [Compound J-13, 5-[[2-(Cyclopropylsulfamoylamino)-3-fluoropyridin-4-yl]methyl]-2-(2-fluoro-4-iodoanilino)-1-methyl-6-oxopyridine-3-carboxamide]
microsomal CLint at 0.99 µM [1]: 39 µL/min/mg | pIC50 ([5]; NCI-H2122, 96 h): 7.10 | pIC50 [2]: 7.54 | pIC50 ([3]; read-out: BRAF IC50; Table 3): 8.40

CCNS(=O)(=O)Nc1nccc(Cc2cc(C(N)=O)c(Nc3ccc(I)cc3F)n(C)c2=O)c1F [Compound J-14, 5-[[2-(ethylsulfamoylamino)-3-fluoropyridin-4-yl]methyl]-2-(2-fluoro-4-iodoanilino)-1-methyl-6-oxopyridine-3-carboxamide]
microsomal CLint at 0.99 µM [1]: 34 µL/min/mg | pIC50 ([5]; NCI-H2122, 96 h): 7.43 | pIC50 [2]: 7.66 | pIC50 ([3]; read-out: BRAF IC50; Table 3): 8.52

Cn1c(Nc2ccc(I)cc2F)c(C(N)=O)cc(Cc2ccnc(NS(=O)(=O)NC3(C)CCC3)c2F)c1=O [Compound J-15, 2-(2-Fluoro-4-iodoanilino)-5-[[3-fluoro-2-[(1-methylcyclobutyl)sulfamoylamino]pyridin-4-yl]methyl]-1-methyl-6-oxopyridine-3-carboxamide]
microsomal CLint at 0.99 µM [1]: 225 µL/min/mg | pIC50 ([5]; NCI-H2122, 96 h): 7.34 | pIC50 [2]: 7.25 | pIC50 ([3]; read-out: BRAF IC50; Table 3): 7.92

CCCNS(=O)(=O)Nc1nccc(Cn2cc(C(N)=O)c(Nc3ccc(I)cc3F)c(F)c2=O)c1F [Compound N-2, 5-Fluoro-4-(2-fluoro-4-iodoanilino)-1-[[3-fluoro-2-(propylsulfamoylamino)pyridin-4-yl]methyl]-6-oxopyridine-3-carboxamide]
microsomal CLint at 0.99 µM [1]: 11 µL/min/mg | pIC50 ([5]; NCI-H2122, 96 h): 7.22 | pIC50 [2]: 9.00 | pIC50 ([3]; read-out: BRAF IC50; Table 3): 9.00

CCS(=O)(=O)Nc1nccc(Cn2cc(C(N)=O)c(Nc3ccc(I)cc3F)c(C)c2=O)c1F [Compound P-2, 1-[[2-(Ethylsulfonylamino)-3-fluoropyridin-4-yl]methyl]-4-(2-fluoro-4-iodoanilino)-5-methyl-6-oxopyridine-3-carboxamide]
microsomal CLint at 0.99 µM [1]: 3 µL/min/mg | pIC50 [2]: 8.10

Cc1c(Nc2ccc(I)cc2F)c(C(N)=O)cn(Cc2ccnc(NS(=O)(=O)NC3(C)CCC3)c2F)c1=O [Compound P-3, 4-(2-Fluoro-4-iodoanilino)-1-[[3-fluoro-2-[(1-methylcyclobutyl)sulfamoylamino]pyridin-4-yl]methyl]-5-methyl-6-oxopyridine-3-carboxamide]
microsomal CLint at 0.99 µM [1]: 37 µL/min/mg | pIC50 ([5]; NCI-H2122, 96 h): 7.02 | pIC50 [2]: 8.52 | pIC50 ([3]; read-out: BRAF IC50; Table 3): 8.00

CCS(=O)(=O)Nc1nccc(Cn2cc(C(=O)NOC)c(Nc3ccc(I)cc3F)c(C)c2=O)c1F [Compound P-5]
microsomal CLint at 0.99 µM [1]: 2 µL/min/mg | pIC50 ([5]; NCI-H2122, 96 h): 7.51 | pIC50 [2]: 7.96 | pIC50 ([3]; read-out: BRAF IC50; Table 3): 7.96

O=C(NOC[C@H](O)CO)c1ccc(F)c(F)c1Nc1ccc(I)cc1F [Ref-1, N-[(2R)-2,3-Dihydroxypropoxy]-3,4-difluoro-2-(2-fluoro-4-iodoanilino)benzamide, reference compound]
microsomal CLint at 0.99 µM [1]: 20 µL/min/mg
